The text below walks through data of patent US11986471B2, “Compounds and methods of use” (Tango Therapeutics, Inc., priority 2018, dated 2024).

What is called pIC50 is −log10 of the IC50, conventionally taken in molar units.

For test [1], the target named is T1, PRMT5 (Homo sapiens, UniProt O14744).
T1 construct: purchased Viva (custom protein)
Briefly: PRMT5 IC50 assay in the presence of SAM as cofactor. In kind it is biochemical. The method, boiled down:
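Potency against PRMT5 is compared across cofactor states, where IC50 equals Ki×1.5 with SAM present and Ki×13.5 with MTA present.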

Test [2] has as its target T1, PRMT5. Briefly: PRMT5 IC50 assay with no cofactor. In kind it is biochemical. The method, boiled down:
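Results given as IC50 (μM), from which Ki follows by dividing by 1.5 in the SAM condition or by 13.5 in the MTA condition. The ratio of SAM Ki to MTA Ki indicates MTA-cooperative preference.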

The target in test [3] is T1, PRMT5. Briefly: PRMT5 IC50 assay in the presence of MTA as cofactor. The settings on record: for pIC50: PRMT5, MTA as cofactor; for SAM/MTA Ratio: ratio between the Ki in the presence of SAM and the Ki in the presence of MTA. It is filed as biochemical. Put shortly:
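IC50 values were measured against human PRMT5 with SAM, with MTA, or with no cofactor. Ki was derived from IC50 as Ki=IC50/1.5 with SAM and Ki=IC50/13.5 with MTA, and the Ki(SAM)/Ki(MTA) ratio was then taken.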

Another test deals with HAP1 MTAP-intact. Briefly: SDMA in-cell western assay, HAP1 MTAP-intact cell line. In kind it is cell-based. The conditions noted are these: Homo sapiens. Put shortly:
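Potency reflects cellular SDMA reduction, detected by in-cell western, in HAP1 cells with or without MTAP (endogenous expression versus null).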

Another test has as its system HAP1 MTAP-deleted. Briefly: SDMA in-cell western assay, HAP1 MTAP-deleted cell line. In kind it is cell-based. The settings on record: for pIC50: Homo sapiens, HAP1 MTAP-deleted cell line; for MTAP Intact/Deleted Ratio: IC50 ratio HAP1 MTAP-intact / HAP1 MTAP-deleted. The method, boiled down: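 These are IC50 values from an in-cell western measuring SDMA. The HAP1 cells used carry no MTAP, in contrast to the isogenic partner line with endogenous MTAP expression.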

SMILES strings stand for the structures. pIC50: −log10 of the molar value.

T1 sequence (O14744 whole entry): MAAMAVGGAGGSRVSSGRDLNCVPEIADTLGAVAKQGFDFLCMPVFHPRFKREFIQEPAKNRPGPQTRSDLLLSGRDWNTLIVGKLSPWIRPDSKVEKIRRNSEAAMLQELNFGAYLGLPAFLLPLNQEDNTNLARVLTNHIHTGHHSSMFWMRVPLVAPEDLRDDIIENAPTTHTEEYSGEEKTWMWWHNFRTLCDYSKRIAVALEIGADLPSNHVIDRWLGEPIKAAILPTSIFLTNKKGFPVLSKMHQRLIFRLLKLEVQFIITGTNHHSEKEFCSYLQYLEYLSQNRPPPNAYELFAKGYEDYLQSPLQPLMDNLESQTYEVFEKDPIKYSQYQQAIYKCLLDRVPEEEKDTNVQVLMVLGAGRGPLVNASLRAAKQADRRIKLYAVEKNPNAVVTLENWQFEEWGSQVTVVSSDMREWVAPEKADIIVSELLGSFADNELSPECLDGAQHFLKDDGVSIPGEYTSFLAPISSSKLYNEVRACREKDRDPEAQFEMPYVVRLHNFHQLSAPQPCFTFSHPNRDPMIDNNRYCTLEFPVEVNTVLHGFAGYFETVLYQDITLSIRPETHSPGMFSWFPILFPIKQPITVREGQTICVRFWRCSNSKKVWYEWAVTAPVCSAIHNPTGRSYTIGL
T1 sequence (Q9BQA1 whole entry partner): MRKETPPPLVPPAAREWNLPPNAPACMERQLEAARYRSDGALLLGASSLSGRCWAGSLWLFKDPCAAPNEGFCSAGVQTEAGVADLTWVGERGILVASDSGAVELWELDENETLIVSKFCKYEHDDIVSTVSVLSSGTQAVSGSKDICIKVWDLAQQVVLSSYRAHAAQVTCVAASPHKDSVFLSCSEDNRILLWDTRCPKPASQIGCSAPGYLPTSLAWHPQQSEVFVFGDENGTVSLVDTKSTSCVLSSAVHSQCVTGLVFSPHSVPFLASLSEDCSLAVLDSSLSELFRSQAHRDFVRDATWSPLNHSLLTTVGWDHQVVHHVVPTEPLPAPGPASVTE

Regarding `CC(=O)N1CCC(Nc2cc(C(=O)NC[C@H](O)CN3CCc4c(ccc(OCc5cnco5)c4Cl)C3)ccn2)CC1` [Compound 429], the pIC50 at PRMT5 [1] was 6.30 to 7.30; against PRMT5 [2], 5.30 to 6.30; at PRMT5 [3], 6.30 to 7.30; in the test on HAP1 MTAP-intact it was not above 5.00; with HAP1 MTAP-deleted, 5.00 to 6.00. The “SAM/MTA Ratio” value at PRMT5 [3] was “A (a Ki ratio greater than or equal to 10 fold between the Ki in the presence of SAM and the Ki in the presence of MTA)”. In addition, the “MTAP Intact/Deleted Ratio” value with HAP1 MTAP-deleted was “B* (an IC50 ratio greater than or equal to 3 fold but lower than 10 fold between the IC50 in the HAP1 MTAP-intact cell line and the HAP1 MTAP-deleted cell line)”.

On to `CS(=O)(=O)N1CCC(Nc2cc(C(=O)NC[C@H](O)CN3CCc4cc(OCc5cnco5)ccc4C3)ccn2)CC1` [Compound 430, N-[(2S)-2-hydroxy-3-[6-(oxazol-5-ylmethoxy)-3,4-dihydro-1H-isoquinolin-2-yl]propyl]-2-[(1-methylsulfonyl-4-piperidyl)amino]pyridine-4-carboxamide], for which the pIC50 at PRMT5 [1] was 6.30 to 7.30; against PRMT5 [2], 5.30 to 6.30; on PRMT5 [3] it was 6.30 to 7.30; in the test on HAP1 MTAP-intact, not above 5.00; with HAP1 MTAP-deleted, 5.00 to 6.00. For the same compound, the “SAM/MTA Ratio” value at PRMT5 [3] was “A (a Ki ratio greater than or equal to 10 fold between the Ki in the presence of SAM and the Ki in the presence of MTA)”. Also, the “MTAP Intact/Deleted Ratio” value in the test with HAP1 MTAP-deleted is “C* (an IC50 ratio of less than 3 fold between the IC50 in the HAP1 MTAP-intact cell line and the HAP1 MTAP-deleted cell line)”.

Consider `CCCC(=O)N1CCC(Nc2cc(C(=O)NC[C@H](O)CN3CCc4cc(OCc5cnco5)ccc4C3)ccn2)CC1` [Compound 431, 2-[(1-butanoyl-4-piperidyl)amino]-N-[(2S)-2-hydroxy-3-[6-(oxazol-5-ylmethoxy)-3,4-dihydro-1H-isoquinolin-2-yl]propyl]pyridine-4-carboxamide], for which the negative logarithm of the IC50 (pIC50) on PRMT5 [1] was 6.30 to 7.30; against PRMT5 [2] it was 5.30 to 6.30; at PRMT5 [3], 6.30 to 7.30; in the test with HAP1 MTAP-intact, 5.00 to 6.00; with HAP1 MTAP-deleted it was more than 6.00. Moreover, on PRMT5 [3], the “SAM/MTA Ratio” value is “A (a Ki ratio greater than or equal to 10 fold between the Ki in the presence of SAM and the Ki in the presence of MTA)”. For the same compound, the “MTAP Intact/Deleted Ratio” value in the test with HAP1 MTAP-deleted was “B* (an IC50 ratio greater than or equal to 3 fold but lower than 10 fold between the IC50 in the HAP1 MTAP-intact cell line and the HAP1 MTAP-deleted cell line)”.

`CC(C)(C)C(=O)N1CCC(Nc2cc(C(=O)NC[C@H](O)CN3CCc4c(ccc(OCc5cnco5)c4Cl)C3)ccn2)CC1` [Compound 432, (S)—N-(3-(5-chloro-6-(oxazol-5-ylmethoxy)-3,4-dihydroisoquinolin-2(1H)-yl)-2-hydroxypropyl)-2-((1-pivaloylpiperidin-4-yl)amino)isonicotinamide]: the pIC50 at PRMT5 [1] was 6.30 to 7.30; against PRMT5 [2] it was 5.30 to 6.30; on PRMT5 [3], 6.30 to 7.30; in the test on HAP1 MTAP-intact it was not above 5.00; with HAP1 MTAP-deleted, 5.00 to 6.00. The “SAM/MTA Ratio” value at PRMT5 [3] is “A (a Ki ratio greater than or equal to 10 fold between the Ki in the presence of SAM and the Ki in the presence of MTA)”. The “MTAP Intact/Deleted Ratio” value in the test with HAP1 MTAP-deleted was “B* (an IC50 ratio greater than or equal to 3 fold but lower than 10 fold between the IC50 in the HAP1 MTAP-intact cell line and the HAP1 MTAP-deleted cell line)”.

Consider `O=C(NC[C@H](O)CN1CCc2cc(OCc3cnco3)ccc2C1)c1ccnc(NC2CCN(C(=O)C3CCC3)CC2)c1` [Compound 433, 2-[[1-(cyclobutanecarbonyl)-4-piperidyl]amino]-N-[(2S)-2-hydroxy-3-[6-(oxazol-5-ylmethoxy)-3N-dihydro-1H-isoquinolin-2-yl]propyl]pyridine-4-carboxamide], for which the pIC50 was 6.30 to 7.30 at PRMT5 [1]; 5.30 to 6.30 at PRMT5 [2]; 6.30 to 7.30 at PRMT5 [3]; 5.00 to 6.00 in the test on HAP1 MTAP-intact; more than 6.00 in the test on HAP1 MTAP-deleted. Besides, the “SAM/MTA Ratio” value on PRMT5 [3] was “A (a Ki ratio greater than or equal to 10 fold between the Ki in the presence of SAM and the Ki in the presence of MTA)”. In addition, the “MTAP Intact/Deleted Ratio” value in the test with HAP1 MTAP-deleted was “B* (an IC50 ratio greater than or equal to 3 fold but lower than 10 fold between the IC50 in the HAP1 MTAP-intact cell line and the HAP1 MTAP-deleted cell line)”.
